Source: patent US20260234157A1, “COMPOUND AND METHOD FOR TARGETED DEGRADATION OF ANDROGEN RECEPTOR” (Gan & Lee Pharmaceuticals Co., Ltd., priority 2023, published 2026)
Positions count from the first letter of the chain named. Where two headings read alike, the source gives them in different places.

Legend:
Assay type in all cases: cell-based
AR protein [1] = biological target: T1, AR protein (Homo sapiens, UniProt P10275, T878A); test: Degradation of AR protein in LNCaP cells (Western blot); conditions: for inhibition at 0.01 µM: read-out: Degradation rates of the AR protein in LNCaP cells, 10 nM (%); for inhibition at 0.1 µM: read-out: Degradation rates of the AR protein in LNCaP cells, 100 nM (%)
T1 construct: degradation activity of the compounds disclosed in the present disclosure on AR protein in LNCaP cells; host or cells: LNCaP FGC
T1 sequence (P10275 1-920 T878A): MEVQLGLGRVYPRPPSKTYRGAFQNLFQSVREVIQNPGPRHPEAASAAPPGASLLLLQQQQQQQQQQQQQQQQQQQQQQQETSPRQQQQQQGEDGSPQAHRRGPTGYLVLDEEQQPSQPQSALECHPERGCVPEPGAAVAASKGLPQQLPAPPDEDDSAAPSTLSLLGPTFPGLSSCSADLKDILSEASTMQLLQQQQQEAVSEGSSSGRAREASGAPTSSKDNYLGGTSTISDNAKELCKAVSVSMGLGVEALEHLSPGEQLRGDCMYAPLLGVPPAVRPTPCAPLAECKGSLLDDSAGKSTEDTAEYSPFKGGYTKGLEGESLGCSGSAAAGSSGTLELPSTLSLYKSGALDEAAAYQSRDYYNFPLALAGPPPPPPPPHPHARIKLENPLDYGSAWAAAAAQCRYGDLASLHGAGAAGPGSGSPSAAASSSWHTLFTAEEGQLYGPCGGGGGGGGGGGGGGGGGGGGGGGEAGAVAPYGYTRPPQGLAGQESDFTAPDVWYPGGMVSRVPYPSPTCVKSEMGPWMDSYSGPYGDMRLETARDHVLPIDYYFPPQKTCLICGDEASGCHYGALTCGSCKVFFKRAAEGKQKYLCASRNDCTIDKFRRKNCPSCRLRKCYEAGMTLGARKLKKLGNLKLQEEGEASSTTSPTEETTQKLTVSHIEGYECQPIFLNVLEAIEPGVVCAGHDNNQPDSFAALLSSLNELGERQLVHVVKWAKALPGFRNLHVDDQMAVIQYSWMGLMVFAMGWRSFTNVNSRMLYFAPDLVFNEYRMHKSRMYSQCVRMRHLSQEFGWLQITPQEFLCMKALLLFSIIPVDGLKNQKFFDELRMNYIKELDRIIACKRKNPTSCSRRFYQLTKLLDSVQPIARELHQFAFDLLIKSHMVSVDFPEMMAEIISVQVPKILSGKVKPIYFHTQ
How it was run: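 Percent AR degradation was derived from GAPDH-normalised Western blot band intensities (infrared detection) in LNCaP lysates.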

AR protein [2] = biological target: T2, AR protein (Homo sapiens, UniProt P10275); test: Degradation of AR protein in VCaP cells (Western blot); conditions: 8 hours; for inhibition at 0.01 µM: compound at 10 nM, read-out: Degradation rate of the AR protein in VCaP cells, 10 nM (%); for inhibition at 0.1 µM: compound at 100 nM, read-out: Degradation rate of the AR protein in VCaP cells, 100 nM (%)
T2 construct: degradation activity of the compounds disclosed in the present disclosure on AR protein in VCaP cells; host or cells: VCaP
T2 sequence (P10275 1-920): T1 sequence (P10275 1-920 T878A) with A878T
How it was run: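 Western blot readout: AR band grayscale normalised to GAPDH, used to derive degradation rate. Lysates came from VCaP cells exposed to compound for 8 h, with solvent controls run in parallel.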

LNCaP FGC cells = test: Inhibition of proliferation of LNCaP cells (WST-8); conditions: Homo sapiens, LNCaP, 96 h
Procedure: The cells were cultured in a cell culture incubator with 5% CO2 at 37° C. overnight. […] On the sixth day, 96 well plates were taken out, and 20 μL of WST-8 (Beytime, C0040) reagent was added to each well.

VCaP cells = test: Inhibition of proliferation of VCaP cells (WST-8); conditions: Homo sapiens, read-out: IC50 for inhibiting the proliferation of VCaP cells
How it was run: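 Proliferation was read by WST-8 on day nine. Cells were VCaP FGC, seeded at 15000 cells per well in 10% FBS DMEM and kept at 37° C with 5% CO2.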

[3] = LNCaP cells, compound 10 nM, 8 hours, Western blot grayscale, GAPDH internal reference
[4] = LNCaP cells, compound 100 nM, 8 hours, Western blot grayscale, GAPDH internal reference
[5] = LNCaP FGC cells, 96 hours, WST-8 absorbance at 450 nm, read-out: IC50 for inhibiting the proliferation of LNCaP cells
[6] = VCaP cells, 168 hours, WST-8 absorbance at 450 nm

inhibition at 0.01 µM (AR protein [1]; [3]) [%] | inhibition at 0.1 µM (AR protein [1]; [4]) [%] | inhibition at 0.01 µM (AR protein [2]) [%] | inhibition at 0.1 µM (AR protein [2]) [%] | IC50 (LNCaP FGC cells; [5]) [nM] | IC50 (VCaP cells; [6]) [nM] | SMILES | inhibition at 0.01 µM (AR protein [1]; LNCaP, 8 h) [%] | inhibition at 0.1 µM (AR protein [1]; LNCaP, 8 h) [%] | IC50 (LNCaP FGC cells; read-out: IC50 for inhibiting the proliferation of LNCaP cells, LNCaP FGC cells, 96 hours, WST-8 absorbance at 450 nm) [nM] | IC50 (VCaP cells; VCaP, 168 h) [nM]
27 | 61 | 49 | 52 | 2210 | 1700 | N#Cc1ccc(O[C@H]2CC[C@H](NC(=O)c3ccc(N4CC5(CCC(N6CCC7(CCc8cc9c(cc8O7)C(=O)N(C7CCC(=O)NC7=O)C9=O)CC6)CC5)C4)nn3)CC2)cc1Cl (stereo partly drawn) [Compound 33] | – | – | – | –
72 | 74 | 49 | 42 | 420 | 530 | N#Cc1ccc(OC2CCC(NC(=O)c3ccc(N4CC5(CC(N6CCC7(CC6)COc6cc8c(cc6C7)C(=O)N(C6CCC(=O)NC6=O)C8=O)C5)C4)nn3)CC2)cc1Cl (stereo not drawn) [Compound 66] | – | – | – | –
18 | 22 | 17 | 19 | 3200 | 7070 | N#Cc1ccc(O[C@H]2CC[C@H](NC(=O)c3ccc(N4CCC5(CC4)CC(F)(F)c4cc6c(cc4O5)C(=O)N(C4CCC(=O)NC4=O)C6=O)nn3)CC2)cc1Cl (stereo partly drawn) [Compound 36] | – | – | – | –
47 | 36 | 48 | 81 | 56000 | 7.5 | N#Cc1ccc(O[C@H]2CC[C@H](NC(=O)c3ccc(N4CC5(CC(C(=O)N6CCC7(CC6)COc6c7ccc7c6CN(C6CCC(=O)NC6=O)C7=O)C5)C4)nn3)CC2)cc1Cl (stereo partly drawn) [Compound 256] | – | – | – | –
37 | 35 | 66 | 86 | 2590 | 3 | N#Cc1ccc(O[C@H]2CC[C@H](NC(=O)c3ccc(N4CCC(CC(=O)N5CCC6(CC5)COc5c6ccc6c5CN(C5CCC(=O)NC5=O)C6=O)CC4)nn3)CC2)cc1Cl (stereo partly drawn) [Compound 192] | – | – | – | –
36 | 75 | 50 | 71 | 500 | 100 | N#Cc1ccc(O[C@H]2CC[C@H](NC(=O)c3ccc(N4CC5(CCC(N6CCC7(CC6)COc6cc8c(cc6C7)C(=O)N(C6CCC(=O)NC6=O)C8=O)CC5)C4)nn3)CC2)cc1Cl (stereo partly drawn) [Compound 65] | – | – | – | –
0 | 65 | 67 | 81 | 500 | 240 | N#Cc1ccc(O[C@H]2CC[C@H](NC(=O)c3ccc(N4CCC5(CC(N6CCC7(CC6)COc6cc8c(cc6C7)C(=O)N(C6CCC(=O)NC6=O)C8=O)C5)C4)nn3)CC2)cc1Cl (stereo partly drawn) [Compound 63] | – | – | – | –

SMILES | inhibition at 0.01 µM (AR protein [1]; [3]) [%] | inhibition at 0.1 µM (AR protein [1]; [4]) [%] | inhibition at 0.01 µM (AR protein [2]) [%] | inhibition at 0.1 µM (AR protein [2]) [%] | IC50 (LNCaP FGC cells; [5]) [nM] | IC50 (VCaP cells; [6]) [nM] | inhibition at 0.01 µM (AR protein [1]; LNCaP, 8 h) [%] | inhibition at 0.1 µM (AR protein [1]; LNCaP, 8 h) [%] | IC50 (LNCaP FGC cells; read-out: IC50 for inhibiting the proliferation of LNCaP cells, LNCaP FGC cells, 96 hours, WST-8 absorbance at 450 nm) [nM] | IC50 (VCaP cells; VCaP, 168 h) [nM]
N#Cc1ccc(O[C@H]2CC[C@H](NC(=O)c3ccc(N4CC(N5CC6(CCc7cc8c(cc7O6)C(=O)N(C6CCC(=O)NC6=O)C8=O)C5)C4)nn3)CC2)cc1Cl (stereo partly drawn) [Compound 5] | – | – | 41 | 51 | – | – | 51 | 35 | 710 | 4500
CCOC1(CN2CCC3(CC2)COc2c3ccc3c2C(=O)N(C2CCC(=O)NC2=O)C3=O)CCN(c2ccc(C(=O)N[C@H]3CC[C@H](Oc4ccc(C#N)c(Cl)c4)CC3)nn2)CC1 (stereo partly drawn) [Compound 244] | -5 | 65 | 3 | 56 | 170 | 68 | – | – | – | –
N#Cc1ccc(O[C@H]2CC[C@H](NC(=O)c3ccc(N4CCC(CN5CCC6(CC5)COc5cc7c(cc56)C(=O)N(C5CCC(=O)NC5=O)C7=O)CC4)nn3)CC2)cc1Cl (stereo partly drawn) [Compound 56] | 44 | 77 | 79 | 88 | 350 | 60 | – | – | – | –
N#Cc1ccc(O[C@H]2CC[C@H](NC(=O)c3ccc(N4CC5(CC(N6CCC7(CC6)COc6cc8c(cc67)C(=O)N(C6CCC(=O)NC6=O)C8=O)C5)C4)nn3)CC2)cc1Cl (stereo partly drawn) [Compound 50] | 66 | 86 | 77 | 88 | 1200 | 28 | – | – | – | –
